Data as given in article PMC6149712, “Anti-Allergic Activity of Monoacylated Ascorbic Acid 2-Glucosides” (Molecules : A Journal of Synthetic Chemistry and Natural …, 2017).
Where a name gives a salt, the structure may show the parent alone.

How the values were obtained:
Type in all cases: biochemical
[1] = molecular target: T1, hyaluronidase type IV-S from a bovine testis (Bos taurus, UniProt Q2YDK3); assay: Morgan-Elson colorimetric hyaluronidase assay
T1 construct: gene SPAM1
T1 sequence (Q2YDK3 36-553): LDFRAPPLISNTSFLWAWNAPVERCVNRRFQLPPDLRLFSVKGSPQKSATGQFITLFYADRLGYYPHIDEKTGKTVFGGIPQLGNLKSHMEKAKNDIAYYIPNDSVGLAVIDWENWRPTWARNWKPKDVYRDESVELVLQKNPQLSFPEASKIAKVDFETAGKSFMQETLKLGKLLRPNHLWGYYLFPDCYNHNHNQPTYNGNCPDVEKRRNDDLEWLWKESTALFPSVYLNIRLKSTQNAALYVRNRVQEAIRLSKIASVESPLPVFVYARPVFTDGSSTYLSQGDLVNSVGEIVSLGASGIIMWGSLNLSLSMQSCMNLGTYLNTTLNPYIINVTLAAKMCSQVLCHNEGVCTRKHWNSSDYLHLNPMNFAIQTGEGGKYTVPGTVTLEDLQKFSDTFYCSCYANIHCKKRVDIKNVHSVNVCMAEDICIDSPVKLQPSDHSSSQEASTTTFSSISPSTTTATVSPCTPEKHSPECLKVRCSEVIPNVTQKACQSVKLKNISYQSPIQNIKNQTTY

[2] = molecular target: T1, hyaluronidase type IV-S from a bovine testis; assay: Morgan-Elson colorimetric hyaluronidase assay; remark: listed apart in the source
[3] = molecular target: T1, hyaluronidase type IV-S from a bovine testis; assay: Morgan-Elson colorimetric hyaluronidase assay, positive control

| Structure (SMILES) | IC50 [1] | Morgan-Elson colorimetric hyaluronidase assay [2] | also measured |
| --- | --- | --- | --- |
| CCCCCCCCCCCCCCCC(=O)OC[C@H](O)[C@H]1OC(=O)C(O[C@H]2O[C@H](CO)[C@@H](O)[C@H](O)[C@H]2O)=C1O [6-sPalm-AA-2G, 2-O-α-D-Glucopyranosyl-6-O-hexadecanoyl-L-ascorbic acid] | 22 µM |  |  |
| CCCCCCCC(CCCCCCC)C(=O)OC[C@H](O)[C@H]1OC(=O)C(O[C@H]2O[C@H](CO)[C@@H](O)[C@H](O)[C@H]2O)=C1O [6-bPalm-AA-2G] |  | 6-bMyri-AA-2G and 6-bPalm-AA-2G significantly inhibited the activity more than 6-bDode-AA-2G |  |
| CCCCCCCCCCCCCCCC(=O)OC[C@H](O)[C@H]1OC(=O)C(O[C@@H]2O[C@H](CO)[C@@H](O)[C@H](O)[C@H]2O)=C1O [6-sPalm-AA-2βG, 2-O-β-D-glucopyranosyl-6-O-hexadecanoyl-L-ascorbic acid] | 25 µM |  |  |
| CCCCCCC(CCCCCC)C(=O)OC[C@H](O)[C@H]1OC(=O)C(O[C@H]2O[C@H](CO)[C@@H](O)[C@H](O)[C@H]2O)=C1O [6-bMyri-AA-2G] |  | 6-bMyri-AA-2G and 6-bPalm-AA-2G significantly inhibited the activity more than 6-bDode-AA-2G |  |
| CCCCCCCCCCCCCCCC(=O)OC[C@H](O)[C@H]1OC(=O)C(O)=C1O [6-Palm-AA, 6-O-palmitoyl-L-AA] | 194 µM |  |  |
| O=C(O)c1cc(=O)c2c(OCC(O)COc3cccc4oc(C(=O)O)cc(=O)c34)cccc2o1 [DSCG, Cromolyn sodium salt] |  |  | Morgan-Elson colorimetric hyaluronidase assay, positive control [3]: Cromolyn sodium salt (DSCG), which is used clinically as an anti-allergy drug, was used as a positive control. |
| CCCCCCCCCCCCCC(=O)OC[C@H](O)[C@H]1OC(=O)C(O[C@H]2O[C@H](CO)[C@@H](O)[C@H](O)[C@H]2O)=C1O [6-sMyri-AA-2G] |  | 6-sMyri-AA-2G and 6-sPalm-AA-2G significantly inhibited the activity more than 6-sDode-AA-2G |  |
